In patent US20120015907A1, “Furopyridine compounds and uses thereof” (NOVARTIS AG, priority 2010, published 2012):

Key:
[1] = test system: HCV replicon I389luc-ubi-neo/NS3-3'/ET in ET (Huh-lucubineo-ET) cells; assay: Replicon assay (Biological Example 2), luciferase read-out; type: cell-based; settings: Hepatitis C virus, luciferase activity 48 hours after compound addition
Description: A cell line, ET (Huh-lucubineo-ET) is used for screening of compounds for inhibiting HCV RNA dependent RNA polymerase. The ET cell line is stably transfected with RNA transcripts harboring a I389luc-ubi-neo/NS3-3′/ET; replicon with firefly luciferase-ubiquitin-neomycin phosphotransferase fusion protein and EMCV-IRES driven NS3-5B polyprotein containing the cell culture adaptive mutations (E1202G; […]; K1846T) (Krieger at al, 2001 and unpublished). The ET cells are grown in DMEM (Dulbeco's Modified Eagle's Medium), supplemented with 10% fetal calf serum, 2 mM Glutamine, Penicillin (100 IU/mL)/Streptomycin (100 μg/mL), 1× nonessential amino acids, and 250 μg/mL G418 (“Geneticin”). Reagents are all available through Life Technologies (Bethesda, Md.). The cells are plated at 0.5-1.0×10^4 cells/well in the 96 well plates and incubated for 24 hrs before adding test compound. The compounds are added to the cells to achieve a final concentration of 0.1 nM to 50 μM and a final DMSO (dimethylsulfoxide) concentration of 0.5%. Luciferase activity is measured 48 hours later by adding a lysis buffer and the substrate (Catalog number Glo-lysis buffer E2661 and Bright-Glo luciferase system E2620 Promega, Madison, Wis.). Cells should not be too confluent during the assay. Percent inhibition of replication data is plotted relative to no compound control. To determine the EC50 (effective concentration at which 50% of the maximum inhibition is observed), a 10 point, 3-fold serial dilution for each compound is used, which spans a concentration range of 1000 fold. EC50 values were calculated by fitting % inhibition at each concentration to the following equation:
% inhibition=100%/[(EC50/[I])^b+1]
where b is Hill's coefficient.

[2] = target: T1, HCV polymerase (Hepatitis C virus genotype 1b, UniProt Q9WMX2); assay: biochemical; settings: polymerase assay of Biological Example 1; read-out: NS5B polymerase IC50
T1 construct: (His)6 (C)

Structure (SMILES)	IC50 [1] [nM]	IC50 [2] [nM]
CNC(=O)c1c(-c2ccc(Cl)cc2)oc2nc(N(CCC[C@@H]3CCCS3(=O)=O)S(C)(=O)=O)c(C3CC3)cc12 [Example 24.8, 2-(4-Chloro-phenyl)-5-cyclopropyl-6-{[3-((R)-1,1-dioxo-tetrahydrothiophen-2-yl)-propyl]-methanesulfonyl-amino}-furo[2,3-b]pyridine-3-carboxylic acid methylamide]	≤ 100	1
CNC(=O)c1c(-c2ccc(F)cc2)oc2nc(N(CCCC(C)(C)C(=O)OCC(C)C)S(C)(=O)=O)c(C3CC3)cc12 [Example 26, isobutyl 5-(N-(5-cyclopropyl-2-(4-fluorophenyl)-3-(methylcarbamoyl)furo[2,3-b]pyridin-6-yl)methylsulfonamido)-2,2-dimethylpentanoate]	≤ 100	6
CNC(=O)c1c(-c2ccc(C)cc2)oc2nc(N(CCCC3(C(=O)O)CCCC3)S(C)(=O)=O)c(C3CC3)cc12 [Example 28, 1-(3-(N-(5-cyclopropyl-3-(methylcarbamoyl)-2-p-tolylfuro[2,3-b]pyridin-6-yl)methylsulfonamido)propyl) cyclopentanecarboxylic acid]	≤ 100	1
CNC(=O)c1c(-c2ccc(C)cc2)oc2nc(N(CC[C@@H]3C[C@H]3C(=O)O)S(C)(=O)=O)c(C3CC3)cc12 [Example 28.1, (1R,2S)-2-(2-(N-(5-cyclopropyl-3-(methylcarbamoyl)-2-p-tolylfuro[2,3-b]pyridin-6-yl)methylsulfonamido)ethyl) cyclopropanecarboxylic acid]	≤ 100	2
CNC(=O)c1c(-c2ccc(F)cc2)oc2nc3c(cc12)C(C)CCCN3S(C)(=O)=O (stereo not shown) [Example 30, 2-(4-Fluoro-phenyl)-9-methanesulfonyl-5-methyl-6,7,8,9-tetrahydro-5H-1-oxa-9,10-diaza-cyclohepta[f]indene-3-carboxylic acid methylamide]	≤ 100	62
CNC(=O)c1c(-c2ccc(F)cc2)oc2nc(N(CCCCCS(C)(=O)=O)S(C)(=O)=O)c(C3CC3)cc12 [Example 26.2, 5-cyclopropyl-2-(4-fluorophenyl)-N-methyl-6-(N-(5-(methylsulfonyl)pentyl)methylsulfonamido) furo[2,3-b]pyridine-3-carboxamide]	≤ 100	4
CNC(=O)c1c(-c2ccc(F)cc2)oc2nc(N(C)S(C)(=O)=O)c(CCCC(=O)NS(C)(=O)=O)cc12 [Example 4.5, 2-(4-fluorophenyl)-N-methyl-6-(N-methylmethylsulfonamido)-5-(4-(methylsulfonamido)-4-oxobutyl)furo[2,3-b]pyridine-3-carboxamide]	≥ 5000	206
CNC(=O)c1c(-c2ccc(C3CC3)cc2)oc2nc(N(CCCS(C)(=O)=O)S(C)(=O)=O)c(C3CC3)cc12 [Example 24.9, 5-cyclopropyl-2-(4-cyclopropylphenyl)-N-methyl-6-(N-(3-(methylsulfonyl)propyl)methylsulfonamido)furo[2,3-b]pyridine-3-carboxamide]	≤ 100	3
CNC(=O)c1c(-c2ccc(F)cc2)oc2nc(N(CCCC(=O)O)S(C)(=O)=O)c(I)cc12 [Example 18.95, 4-(N-(2-(4-fluorophenyl)-5-iodo-3-(methylcarbamoyl)furo[2,3-b]pyridin-6-yl)methylsulfonamido)butanoic acid]	≥ 5000	112
CNC(=O)c1c(-c2ccc(F)cc2)oc2nc(N(CCCCS(C)(=O)=O)S(C)(=O)=O)c(C3CC3)cc12 [Example 25.7, 5-cyclopropyl-2-(4-fluorophenyl)-N-methyl-6-(N-(4-(methylsulfonyl)butyl)methylsulfonamido)furo[2,3-b]pyridine-3-carboxamide]	≤ 100	1
CCc1cc2c(C(=O)NC)c(-c3ccc(F)cc3)oc2nc1N(CCCCS(=O)(=O)C(C)C)S(C)(=O)=O [Example 23.92, 5-ethyl-2-(4-fluorophenyl)-6-(N-(4-(isopropylsulfonyl)butyl)methylsulfonamido)-N-methylfuro[2,3-b]pyridine-3-carboxamide]	≤ 100	11
